Laboratory results published in ChEMBL document CHEMBL5325431, “Synthesis of thieno[3,2-e]pyrrolo[1,2-a]pyrimidine derivatives and their precursors containing 2-aminothiophenes fragments as anticancer agents for therapy of pulmonary metastatic melanoma” (Eur J Med Chem, 2023).
pIC50: −log10 of the molar value.

Columns and labels:
[1] = test system: B16-F10; experiment: Cytotoxicity against mouse B16-F10 cells assessed as cell survival incubated for 24 hrs by alamarblue staining based analysis; format: functional; settings: B16-F10, 24 h
[2] = Cytotoxicity against NF2-deficient mouse MEF cells assessed as cell survival incubated for 24 hrs by alamarblue staining based analysis; format: toxicity
[3] = test system: U-87 MG; experiment: Cytotoxicity against human U-87 MG cells assessed as inhibition of cell growth; format: functional, cell-based, U-87MG ATCC
[4] = test system: HCT-116; experiment: Cytotoxicity against human HCT-116 cells assessed as inhibition of cell growth; format: functional, cell-based
[5] = test system: B16-F10; experiment: Antitumor activity against metastatic mouse B16-F10 cells implanted in C57BL/6 mouse assessed as number of lung metastases at 4.6 to 42 mg/kg, ip administered every 3rd day for 22 days measured on day 23 by histological analysis (reference value: 223 +/- 12); format: functional; settings: dose 4.6-42 mg/kg, time 23 day
[6] = test system: B16-F10; experiment: Antitumor activity against metastatic mouse B16-F10 cells implanted in C57BL/6 mouse assessed as number of lung metastases at 9 to 9.5 mg/kg, ip administered for 22 days by histological analysis (reference value: 223 +/- 12); format: functional; settings: dose 9-9.5 mg/kg, time 22 day
[7] = test system: B16-F10; experiment: Antitumor activity against metastatic mouse B16-F10 cells implanted in C57BL/6 mouse assessed as number of lung metastases at 9 to 9.5 mg/kg, ip administered for 19 days by histological analysis (reference value: 190 +/- 9); format: functional; settings: dose 9-9.5 mg/kg, time 19 day
[8] = test system: B16-F10; experiment: Antitumor activity against metastatic mouse B16-F10 cells implanted in C57BL/6 mouse assessed as number of lung metastases at 9 to 9.5 mg/kg, ip administered for 12 days by histological analysis (reference value: 150 +/- 7); format: functional; settings: dose 9-9.5 mg/kg, time 12 day
[9] = test system: B16-F10; experiment: Antitumor activity against metastatic mouse B16-F10 cells implanted in C57BL/6 mouse assessed as number of lung metastases at 9 to 9.5 mg/kg, ip administered for 15 days by histological analysis (reference value: 175 +/- 10); format: functional; settings: dose 9-9.5 mg/kg, time 15 day
[10] = test system: MCF7; experiment: Cytotoxicity against human MCF7 cells assessed as inhibition of cell growth; format: functional, cell-based
[11] = test system: JAR; experiment: Cytotoxicity against human JAR cells assessed as inhibition of cell growth; format: functional, cell-based

Row | Compound | pIC50 [1] | IC50 at 24 h [2] | also measured
1 | CCOC(=O)c1c(N2C(N)=C(C(N)=O)C(=O)/C2=C\C(=O)c2ccc(OC)cc2OC)sc2c1CCCC2 | 4.32 | > 100 µM | –
2 | CCOC(=O)C1=C2NC(=O)c3c(sc(C)c3C)N2/C(=C/C(=O)c2ccc(C)cc2)C1=O | 4.36 | > 100 µM | –
3 | NC(=O)C1=C2NC(=O)c3c(sc4c3CCCC4)N2/C(=C/C(=O)c2ccccc2)C1=O | 4.24 | > 100 µM | –
4 | CCOC(=O)C1=C(N)N(c2sc(C)c(C)c2C(=O)OCC)/C(=C/C(=O)c2ccc(OC)cc2)C1=O | 4.38 | > 100 µM | –
5 | CCOC(=O)C1=C2NC(=O)c3c(sc4c3CCCC4)N2/C(=C/C(=O)c2ccc(OC)cc2OC)C1=O | 4.49 | > 100 µM | –
6 | CCOC(=O)C1=C(N)N(c2sc(C)c(C)c2C(=O)OCC)/C(=C/C(=O)c2ccc(Cl)cc2)C1=O | 4.24 | > 100 µM | –
7 | CCOC(=O)/C(C#N)=C(O)/C(=C/C(=O)c1ccc(C)cc1)Nc1sc2c(c1C(=O)OCC)CCCC2 | 4.54 | > 100 µM | –
8 | CCOC(=O)c1c(NC(=C\C(=O)c2ccc(C)cc2)/C(O)=C(\C#N)C(N)=O)sc2c1CCCC2 | 4.92 | > 100 µM | –
9 | CCOC(=O)c1c(N)sc(C(=O)Nc2ccccc2)c1-c1ccccc1 | – | – | pIC50 [3]: 5.13
10 | CCOC(=O)C1=C(N)N(c2sc3c(c2C(=O)OCC)CCCCC3)/C(=C/C(=O)c2ccc(C)cc2)C1=O | 4.60 | > 100 µM | –
11 | CCOC(=O)c1c(N2C(N)=C(C(N)=O)C(=O)/C2=C\C(=O)c2ccc(Cl)cc2)sc2c1CCCC2 | 4.25 | > 100 µM | –
12 | CCOC(=O)c1c(N2C(N)=C(C(N)=O)C(=O)/C2=C\C(=O)c2ccccc2)sc2c1CCCCC2 | 4.65 | > 100 µM | –
13 | CCOC(=O)/C(C#N)=C(O)/C(=C/C(=O)c1ccc(OC)cc1)Nc1sc2c(c1C(=O)OCC)CCCC2 | 4.71 | > 100 µM | –
14 | CCOC(=O)C1=C2NC(=O)c3c(sc4c3CCCCCC4)N2/C(=C/C(=O)c2ccccc2)C1=O | 4.63 | > 100 µM | –
15 | CCOC(=O)C1=C2NC(=O)c3c(sc4c3CCCC4)N2/C(=C/C(=O)c2ccc(C)cc2)C1=O | 4.39 | > 100 µM | –
16 | CCOC(=O)C1=C2NC(=O)c3c(sc4c3CCCC4)N2/C(=C/C(=O)c2cccs2)C1=O | 4.23 | > 100 µM | –
17 | CCOC(=O)C1=C(N)N(c2sc3c(c2C(=O)OCC)CCCC3)/C(=C/C(=O)c2ccc(C)cc2)C1=O | 4.16 | > 100 µM | –
18 | CCOC(=O)C1=C(N)N(c2sc3c(c2C(=O)OCC)CCCC3)/C(=C/C(=O)c2ccc(OC)cc2OC)C1=O | 4.27 | > 100 µM | –
19 | CCOC(=O)C1=C2NC(=O)c3c(sc4c3CCCC4)N2/C(=C/C(=O)c2ccccc2)C1=O | 4.33 | > 100 µM | –
20 | CCOC(=O)c1c(N2C(N)=C(C(N)=O)C(=O)/C2=C\C(=O)c2ccccc2)sc2c1CCCC2 | 4.28 | > 100 µM | –
21 | CCOC(=O)/C(C#N)=C(O)/C(=C/C(=O)c1ccccc1)Nc1sc2c(c1C(=O)OCC)CCCC2 | 4.41 | > 100 µM | –
22 | CCOC(=O)c1c(NC(=C\C(=O)c2ccc(C)cc2)/C(O)=C(\C#N)C(N)=O)sc(C)c1C | 4.75 | > 100 µM | –

Row | Compound | pIC50 [1] | IC50 at 24 h [2] | also measured
23 | O=C(CSc1nc2sc3c(c2c(=O)n1Cc1ccccc1)CCCC3)NNC(=S)Nc1ccccc1 | – | – | pIC50 [4]: 5.27
24 | CCOC(=O)C1=C(N)N(c2sc(C)c(C)c2C(=O)OCC)/C(=C/C(=O)c2ccccc2)C1=O | 4.38 | > 100 µM | –
25 | COc1ccc(C(=O)/C=C2\C(=O)C(C(N)=O)=C3NC(=O)c4c(sc5c4CCCC5)N32)cc1 | 4.37 | > 100 µM | –
26 | CCOC(=O)c1c(N2C(N)=C(C(N)=O)C(=O)/C2=C\C(=O)c2ccc(OC)cc2)sc2c1CCCC2 | 4.32 | > 100 µM | –
27 | Cc1ccc(C(=O)/C=C2\C(=O)C(C#N)=C3NC(=O)c4c(sc5c4CCCCC5)N32)cc1 | 5.06 | > 100 µM | –
28 | CCOC(=O)c1c(N/C(=C\C(=O)c2ccc(OC)cc2)C(O)=C(C#N)C#N)sc2c1CCCC2 | < 4.00 | > 100 µM | –
29 | CCOC(=O)c1c(N2C(N)=C(C(N)=O)C(=O)/C2=C\C(=O)c2ccc(OCC)cc2)sc2c1CCCC2 | < 4.00 | > 100 µM | –
30 | CCOC(=O)c1c(N/C(=C\C(=O)c2ccc(OC)cc2)C(O)=C(C#N)C#N)sc2c1CCCCC2 | < 4.00 | > 100 µM | –
31 | CCOC(=O)/C(C#N)=C(O)/C(=C/C(=O)c1ccc(C)cc1)Nc1sc(C)c(C)c1C(=O)OCC | 4.35 | > 100 µM | –
32 | CC(=O)O[C@H]1C(=O)[C@@]2(C)[C@H]([C@H](OC(=O)c3ccccc3)[C@]3(O)C[C@H](OC(=O)[C@H](O)[C@@H](NC(=O)c4ccccc4)c4ccccc4)C(C)=C1C3(C)C)[C@]1(OC(C)=O)CO[C@@H]1C[C@@H]2O [PACLITAXEL] | – | – | Activity [5]: 50; Activity [6]: 80; Activity [7]: 97; Activity [8]: 158; Activity [9]: 125
33 | CCOC(=O)c1c(N2C(N)=C(C#N)C(=O)/C2=C\C(=O)c2ccc(OC)cc2)sc2c1CCCCC2 | 5.04 | > 100 µM | –
34 | CCOC(=O)c1c(N/C(=C\C(=O)c2ccc(C)cc2)C(O)=C(C#N)C#N)sc2c1CCCCC2 | < 4.00 | > 100 µM | –
35 | CCOC(=O)C1=C(N)N(c2sc3c(c2C(=O)OCC)CCCC3)/C(=C/C(=O)c2ccccc2)C1=O | 4.33 | > 100 µM | –
36 | CCOC(=O)C1=C(Nc2ccccc2)S/C(=C\C2CCCCC2)C1=O | – | – | pIC50 [10]: 4.34; pIC50 [11]: 4.02
37 | CCOC(=O)C1=C2NC(=O)c3c(sc4c3CCCC4)N2/C(=C/C(=O)c2ccc(Cl)cc2)C1=O | 4.26 | > 100 µM | –
38 | CCOC(=O)C1=C(N)N(c2sc3c(c2C(=O)OCC)CCCC3)/C(=C/C(=O)c2ccc(OC)cc2)C1=O | < 4.00 | > 100 µM | –
39 | CCOC(=O)C1=C(N)N(c2sc3c(c2C(=O)OCC)CCCC3)/C(=C/C(=O)c2cccs2)C1=O | 4.24 | > 100 µM | –
40 | CCOC(=O)c1c(NC(=C\C(=O)c2ccccc2)/C(O)=C(\C#N)C(N)=O)sc2c1CCCC2 | 4.85 | > 100 µM | –
41 | CCOC(=O)C1=C(N)N(c2sc3c(c2C(=O)OCC)CCCCC3)/C(=C/C(=O)c2ccccc2)C1=O | 4.44 | > 100 µM | –
42 | N#CC1=C2NC(=O)c3c(sc4c3CCCCCC4)N2/C(=C/C(=O)c2ccccc2)C1=O | 4.90 | > 100 µM | –
43 | CCOC(=O)C1=C2NC(=O)c3c(sc(C)c3C)N2/C(=C/C(=O)c2ccc(Cl)cc2)C1=O | 4.19 | > 100 µM | –
44 | NC(=O)C1=C2NC(=O)c3c(sc4c3CCCCC4)N2/C(=C/C(=O)c2ccccc2)C1=O | 4.61 | > 100 µM | –
